Laboratory results: patent US11872202B2, “Pleuromutilin cinnamic acid ester compounds with activities against antibiotic-resistant infections” (SHAANXI UNIVERSITY OF SCIENCE AND TECHNOLOGY, priority 2021, dated 2024)
≈ marks a conversion by molar mass, not a printed value. Read-outs that look alike come from different tables or passages of the source.

Assays:
Assay in all cases: MIC, micro-broth dilution method
Type in all cases: cell-based
[1] = system: Staphylococcus aureus ATCC25923
Procedure: (§1) The minimum inhibitory concentration (MIC) of pleuromutilin cinnamate easters and their starting materials was tested by a micro-broth dilution method, with retamoline, vornimulin and tiamulin as positive controls.
(§2) The experimental strains included Gram-positive bacteria: Methicillin-sensitive Staphylococcus epidermidis ATCC12228, Staphylococcus aureus ATCC29213 and ATCC25923, and Methicillin-resistant Staphylococcus aureus ATCC33591; Gram-negative bacteria: Acinetobacter baumannii ATCC19606 and E. coli Bacillus ATCC25922 (the strains used were from the American type culture collection (ATCC)).

[2] = system: Escherichia coli ATCC25922
Procedure: as §1, §2

[3] = system: Methicillin-sensitive Staphylococcus epidermidis ATCC12228; settings: for inhibitory effect compared with the three tested positive controls: methicillin-sensitive Staphylococcus epidermidis, statement in words from Table 1
Procedure: as §1, §2

[4] = system: Acinetobacter baumannii ATCC19606
Procedure: as §1, §2

[5] = system: Methicillin-resistant Staphylococcus aureus ATCC33591
Procedure: as §1, §2

[6] = system: Staphylococcus aureus ATCC29213
Procedure: as §1, §2

[7] = Staphylococcus aureus ATCC25923, 37° C., 20-22 h, read-out: Minimum inhibitory concentration
[8] = Escherichia coli ATCC25922, 37° C., 20-22 h, read-out: Minimum inhibitory concentration
[9] = Methicillin-sensitive Staphylococcus epidermidis ATCC12228, 37° C., 20-22 h, read-out: Minimum inhibitory concentration
[10] = Acinetobacter baumannii ATCC19606, 37° C., 20-22 h, read-out: Minimum inhibitory concentration
[11] = Methicillin-resistant Staphylococcus aureus ATCC33591, 37° C., 20-22 h, read-out: Minimum inhibitory concentration
[12] = Staphylococcus aureus ATCC29213, 37° C., 20-22 h, read-out: Minimum inhibitory concentration

MIC [1, 7]	MIC [2, 8]	MIC [3, 9]	MIC [4, 10]	MIC [5, 11]	MIC [6, 12]	SMILES	inhibitory effect compared with the three tested positive controls [3]	MIC ([1]; Staphylococcus aureus, ATCC25923, read-out: Minimum inhibitory concentration)	MIC ([2]; Escherichia coli, ATCC25922, read-out: Minimum inhibitory concentration)	MIC ([3]; Staphylococcus epidermidis, ATCC12228, read-out: Minimum inhibitory concentration)	MIC ([4]; Acinetobacter baumannii, ATCC19606, read-out: Minimum inhibitory concentration)	MIC ([5]; Staphylococcus aureus, ATCC33591, read-out: Minimum inhibitory concentration)	MIC ([6]; Staphylococcus aureus, ATCC29213, read-out: Minimum inhibitory concentration)	inhibition compared with tiamulin ([4]; Acinetobacter baumannii, statement in words from Table 1)
16 µg/mL (≈ 29.5 µM)	64 µg/mL (≈ 118 µM)	8 µg/mL (≈ 14.7 µM)	128 µg/mL (≈ 236 µM)	32 µg/mL (≈ 58.9 µM)	32 µg/mL (≈ 58.9 µM)	C=C[C@]1(C)C[C@@H](OC(=O)COC(=O)/C=C/c2cccc(Cl)c2)[C@]2(C)[C@H](C)CC[C@]3(CCC(=O)[C@H]32)[C@@H](C)[C@@H]1O [Compound 2, (E)-2-(((3aR,4R,5R,8S,9R,12R)-8-hydroxy-4,7,9,12-tetramethyl-3-oxo-7-vinyldecahydro-4,9a-propanocyclopenta[8]annulen-5-yl)oxy)-2-oxoethyl 3-(3-chlorophenyl)acrylate]	better than that of the positive controls	–	–	–	–	–	–	–
4 µg/mL (≈ 7.86 µM)	128 µg/mL (≈ 252 µM)	16 µg/mL (≈ 31.5 µM)	> 256 µg/mL	32 µg/mL (≈ 62.9 µM)	16 µg/mL (≈ 31.5 µM)	C=C[C@]1(C)C[C@@H](OC(=O)COC(=O)/C=C/c2ccccc2)[C@]2(C)[C@H](C)CC[C@]3(CCC(=O)[C@H]32)[C@@H](C)[C@@H]1O [Compound 3, 2-(((3aR,4R,5R,8S,9R,12R)-8-hydroxy-4,7,9,12-tetramethyl-3-oxo-7-vinyldecahydro-4,9a-propanocyclopenta[8]annulen-5-yl)oxy)-2-oxoethyl cinnamate]	–	–	–	–	–	–	–	–
–	–	–	–	–	–	C=C[C@]1(C)C[C@@H](OC(=O)COC(=O)/C=C/c2ccc(C#N)cc2)[C@]2(C)[C@H](C)CC[C@]3(CCC(=O)[C@H]32)[C@@H](C)[C@@H]1O [Compound 6, (E)-2-(((3aR,4R,5R,8S,9R,12R)-8-hydroxy-4,7,9,12-tetramethyl-3-oxo-7-vinyldecahydro-4,9a-propanocyclopenta[8]annulen-5-yl)oxy)-2-oxoethyl 3-(4-cyanophenyl)acrylate]	–	32 µg/mL (≈ 60 µM)	> 256 µg/mL	64 µg/mL (≈ 120 µM)	> 256 µg/mL	64 µg/mL (≈ 120 µM)	64 µg/mL (≈ 120 µM)	–
4 µg/mL (≈ 7.03 µM)	64 µg/mL (≈ 113 µM)	16 µg/mL (≈ 28.1 µM)	> 256 µg/mL	32 µg/mL (≈ 56.3 µM)	8 µg/mL (≈ 14.1 µM)	C=C[C@]1(C)C[C@@H](OC(=O)COC(=O)/C=C/c2ccc(OC)c(OC)c2)[C@]2(C)[C@H](C)CC[C@]3(CCC(=O)[C@H]32)[C@@H](C)[C@@H]1O [Compound 7, (E)-2-(((3aR,4R,5R,8S,9R,12R)-8-hydroxy-4,7,9,12-tetramethyl-3-oxo-7-vinyldecahydro-4,9a-propanocyclopenta[8]annulen-5-yl)oxy)-2-oxoethyl 3-(3,4-dimethoxyphenyl)acrylate]	–	–	–	–	–	–	–	–
16 µg/mL (≈ 30.4 µM)	> 256 µg/mL	32 µg/mL (≈ 60.8 µM)	> 256 µg/mL	64 µg/mL (≈ 122 µM)	32 µg/mL (≈ 60.8 µM)	C=C[C@]1(C)C[C@@H](OC(=O)COC(=O)/C=C/c2cccc(F)c2)[C@]2(C)[C@H](C)CC[C@]3(CCC(=O)[C@H]32)[C@@H](C)[C@@H]1O [Compound 8, (E)-2-(((3aR,4R,5R,8S,9R,12R)-8-hydroxy-4,7,9,12-tetramethyl-3-oxo-7-vinyldecahydro-4,9a-propanocyclopenta[8]annulen-5-yl)oxy)-2-oxoethyl 3-(3-fluorophenyl)acrylate]	–	–	–	–	–	–	–	–
16 µg/mL (≈ 26.4 µM)	64 µg/mL (≈ 106 µM)	64 µg/mL (≈ 106 µM)	128 µg/mL (≈ 211 µM)	64 µg/mL (≈ 106 µM)	32 µg/mL (≈ 52.8 µM)	C=C[C@]1(C)C[C@@H](OC(=O)COC(=O)/C=C/c2cc(Br)ccc2F)[C@]2(C)[C@H](C)CC[C@]3(CCC(=O)[C@H]32)[C@@H](C)[C@@H]1O [Compound 9, (E)-2-(((3aR,4R,5R,8S,9R,12R)-8-hydroxy-4,7,9,12-tetramethyl-3-oxo-7-vinyldecahydro-4,9a-propanocyclopenta[8]annulen-5-yl)oxy)-2-oxoethyl 3-(5-bromo-2-fluorophenyl)acrylate]	–	–	–	–	–	–	–	–
16 µg/mL (≈ 30.4 µM)	128 µg/mL (≈ 243 µM)	32 µg/mL (≈ 60.8 µM)	128 µg/mL (≈ 243 µM)	32 µg/mL (≈ 60.8 µM)	32 µg/mL (≈ 60.8 µM)	C=C[C@]1(C)C[C@@H](OC(=O)COC(=O)/C=C/c2ccc(F)cc2)[C@]2(C)[C@H](C)CC[C@]3(CCC(=O)[C@H]32)[C@@H](C)[C@@H]1O [Compound 11, (E)-2-(((3aR,4R,5R,8S,9R,12R)-8-hydroxy-4,7,9,12-tetramethyl-3-oxo-7-vinyldecahydro-4,9a-propanocyclopenta[8]annulen-5-yl)oxy)-2-oxoethyl 3-(4-fluorophenyl)acrylate]	–	–	–	–	–	–	–	–
32 µg/mL (≈ 56.9 µM)	64 µg/mL (≈ 114 µM)	16 µg/mL (≈ 28.4 µM)	128 µg/mL (≈ 228 µM)	128 µg/mL (≈ 228 µM)	64 µg/mL (≈ 114 µM)	C=C[C@]1(C)C[C@@H](OC(=O)COC(=O)/C=C/c2ccc(F)c(F)c2F)[C@]2(C)[C@H](C)CC[C@]3(CCC(=O)[C@H]32)[C@@H](C)[C@@H]1O [Compound 12, (E)-2-(((3aR,4R,5R,8S,9R,12R)-8-hydroxy-4,7,9,12-tetramethyl-3-oxo-7-vinyldecahydro-4,9a-propanocyclopenta[8]annulen-5-yl)oxy)-2-oxoethyl 3-(2,3,4-trifluorophenyl)acrylate]	–	–	–	–	–	–	–	–
16 µg/mL (≈ 26 µM)	> 256 µg/mL	32 µg/mL (≈ 52.1 µM)	64 µg/mL (≈ 104 µM)	128 µg/mL (≈ 208 µM)	32 µg/mL (≈ 52.1 µM)	C=C[C@]1(C)C[C@@H](OC(=O)COC(=O)/C=C/c2cccc(OCc3ccccc3)c2)[C@]2(C)[C@H](C)CC[C@]3(CCC(=O)[C@H]32)[C@@H](C)[C@@H]1O [Compound 13, (E)-2-(((3aR,4R,5R,8S,9R,12R)-8-hydroxy-4,7,9,12-tetramethyl-3-oxo-7-vinyldecahydro-4,9a-propanocyclopenta[8]annulen-5-yl)oxy)-2-oxoethyl 3-(3-(benzyloxy)phenyl)acrylate]	–	–	–	–	–	–	–	as much as tiamulin
16 µg/mL (≈ 27.7 µM)	64 µg/mL (≈ 111 µM)	8 µg/mL (≈ 13.9 µM)	> 256 µg/mL	128 µg/mL (≈ 222 µM)	16 µg/mL (≈ 27.7 µM)	C=C[C@]1(C)C[C@@H](OC(=O)COC(=O)/C=C/c2ccc(C(F)(F)F)cc2)[C@]2(C)[C@H](C)CC[C@]3(CCC(=O)[C@H]32)[C@@H](C)[C@@H]1O [Compound 15, (E)-2-(((3aR,4R,5R,8S,9R,12R)-8-hydroxy-4,7,9,12-tetramethyl-3-oxo-7-vinyldecahydro-4,9a-propanocyclopenta[8]annulen-5-yl)oxy)-2-oxoethyl 3-(4-(trifluoromethyl)phenyl)acrylate]	better than that of the positive controls	–	–	–	–	–	–	–
32 µg/mL (≈ 55.5 µM)	64 µg/mL (≈ 111 µM)	64 µg/mL (≈ 111 µM)	128 µg/mL (≈ 222 µM)	256 µg/mL (≈ 444 µM)	64 µg/mL (≈ 111 µM)	C=C[C@]1(C)C[C@@H](OC(=O)COC(=O)/C=C/c2cccc(C(F)(F)F)c2)[C@]2(C)[C@H](C)CC[C@]3(CCC(=O)[C@H]32)[C@@H](C)[C@@H]1O [Compound 16, (E)-2-(((3aR,4R,5R,8S,9R,12R)-8-hydroxy-4,7,9,12-tetramethyl-3-oxo-7-vinyldecahydro-4,9a-propanocyclopenta[8]annulen-5-yl)oxy)-2-oxoethyl 3-(3-(trifluoromethyl)phenyl)acrylate]	–	–	–	–	–	–	–	–
8 µg/mL (≈ 13.6 µM)	64 µg/mL (≈ 109 µM)	16 µg/mL (≈ 27.2 µM)	128 µg/mL (≈ 217 µM)	32 µg/mL (≈ 54.4 µM)	16 µg/mL (≈ 27.2 µM)	C=C[C@]1(C)C[C@@H](OC(=O)COC(=O)/C=C/c2ccc(Cn3ccnc3)cc2)[C@]2(C)[C@H](C)CC[C@]3(CCC(=O)[C@H]32)[C@@H](C)[C@@H]1O [Compound 17]	–	–	–	–	–	–	–	–
16 µg/mL (≈ 28.6 µM)	256 µg/mL (≈ 458 µM)	32 µg/mL (≈ 57.3 µM)	256 µg/mL (≈ 458 µM)	128 µg/mL (≈ 229 µM)	32 µg/mL (≈ 57.3 µM)	C=C[C@]1(C)C[C@@H](OC(=O)COC(=O)/C=C/c2ccc3ccccc3c2)[C@]2(C)[C@H](C)CC[C@]3(CCC(=O)[C@H]32)[C@@H](C)[C@@H]1O [Compound 18, (E)-2-(((3aR,4R,5R,7S,8S,9R,9aS,12R)-8-hydroxy-4,7,9,12-tetramethyl-3-oxo-7-vinyldecahydro-4,9a-propanocyclopenta[8]annulen-5-yl)oxy)-2-oxoethyl 3-(naphthalen-2-yl)acrylate]	–	–	–	–	–	–	–	–
8 µg/mL (≈ 13.5 µM)	128 µg/mL (≈ 215 µM)	16 µg/mL (≈ 26.9 µM)	> 256 µg/mL	64 µg/mL (≈ 108 µM)	16 µg/mL (≈ 26.9 µM)	C=C[C@]1(C)C[C@@H](OC(=O)COC(=O)/C=C/c2ccc(C(F)(F)F)cc2F)[C@]2(C)[C@H](C)CC[C@]3(CCC(=O)[C@H]32)[C@@H](C)[C@@H]1O [Compound 19, (E)-2-(((3aR,4R,5R,8S,9R,12R)-8-hydroxy-4,7,9,12-tetramethyl-3-oxo-7-vinyldecahydro-4,9a-propanocyclopenta[8]annulen-5-yl)oxy)-2-oxoethyl 3-(2-fluoro-4-(trifluoromethyl)phenyl)acrylate]	–	–	–	–	–	–	–	–
